From patent publication US4294843A, “Anti-protozoal oxadiazole derivatives” (Burroughs Wellcome Co., priority 1978, dated 1981) come the findings set out here.

The inhibition in vivo is the change of the read-out against control, counted positive when it falls.

Structures can show the parent of a compound that is named as a salt.

The test system of this experiment is P. berghei. In words: percentage inhibition of P. berghei (blood parasitaemia) in mice, seven oral doses. The experiment is classed as in vivo. To be noted: Plasmodium berghei, 96 h, parasitaemia on fourth day; for inhibition in vivo at 10 mg/kg: 7 × 10 mg/kg oral; for inhibition in vivo at 100 mg/kg: 7 × 100 mg/kg oral. The source says: Groups of five mice were inoculated intraperitoneally with the normal strain of P. berghei. The mice on test received seven oral doses of drug beginning on the afternoon of the day of infection then twice a day for the following three days. Blood parasitaemias were estimated on the fourth day and compared with those of the untreated controls.
The results are given in Table 1, the results being expressed as percentage inhibition of P. berghei.

Regarding `Nc1cc(Br)ccc1SCc1ncon1` [Example 10, 3-(2-Amino-4-bromophenylthiomethyl)-1,2,4-oxadiazole], the inhibition in vivo at 10 mg/kg was 85% and the inhibition in vivo at 100 mg/kg was found to be 99%.

For `Nc1ccccc1SCc1noc(CSc2ccccc2N)n1` [Example 13, 3,5-Di-(2-aminophenylthiomethyl)-1,2,4-oxadiazole], the inhibition in vivo at 10 mg/kg stood at 77%.

Turning to `Nc1cc(F)ccc1SCc1ncon1` [Example 16, 3-(2-Amino-4-fluorophenylthiomethyl)-1,2,4-oxadiazole], 10 mg/kg produced 81% inhibition in vivo and 100 mg/kg produced 100% inhibition in vivo.

For the compound `COC(=O)Nc1ccccc1SCc1ncon1` [Example 20, 3-(2-methoxycarbonylaminophenylthiomethyl)-1,2,4-oxadiazole], 100 mg/kg produced 97.5% inhibition in vivo.

Take `Clc1ccccc1C=Nc1ccccc1SCc1ncon1` [Example 40, 3-[2-(2-Chlorobenzylideneamino)phenylthiomethyl]-1,2,4-oxadiazole]: the inhibition in vivo at 10 mg/kg is 82% and the inhibition in vivo at 100 mg/kg amounted to 100%.

Compound `COc1ccc(SCc2ncon2)c(N(C)C)c1` [Example 17, 3-(2-Dimethylamino-4-methoxyphenylthiomethyl)-1,2,4-oxadiazole] yielded an inhibition in vivo at 100 mg/kg of 62%.

Consider `CN(C)c1ccccc1SCC(N)=NO` [Example 56, 2-(2-Dimethylaminophenylthio)acetamidoxime], for which the inhibition in vivo at 10 mg/kg stood at 100%.

Take `COc1ccc(C=Nc2ccccc2SCc2ncon2)cc1OC` [Example 38, 3-[2-(3,4-Dimethoxybenzylideneamino)phenylthiomethyl]-1,2,4-oxadiazole]: at 10 mg/kg the inhibition in vivo was 9% and the inhibition in vivo at 100 mg/kg is 36%.

As to `OC(CNc1ccccc1SCc1ncon1)COc1ccccc1` (centres unmarked) [Example 43, 2-Hydroxy-1-[2-(1,2,4-oxadiazol-3-ylmethylthio)anilino]-3-phenoxypropane], testing at 10 mg/kg gave an inhibition in vivo of 24% and the inhibition in vivo at 100 mg/kg is 60%.

As for `COc1ccc(C=Nc2ccccc2SCc2ncon2)cc1` [Example 39, 3-[2-(4-Methoxybenzylideneamino)phenylthiomethyl]-1,2,4-oxadiazole], 10 mg/kg produced 73% inhibition in vivo and testing at 100 mg/kg gave an inhibition in vivo of 99.7%.

Consider `Cc1ccc(N)c(SCc2ncon2)c1` [Example 7, 3-(2-Amino-5-methylphenylthiomethyl)-1,2,4-oxadiazole], for which the inhibition in vivo at 10 mg/kg was determined as 46% and 100 mg/kg produced 99% inhibition in vivo.

Regarding `O=C(Nc1ccccc1SCc1ncon1)OCc1ccccc1` [Example 21, 3-(2-Benzyloxycarbonylaminophenylthiomethyl)-1,2,4-oxadiazole], testing at 10 mg/kg gave an inhibition in vivo of 68% and the inhibition in vivo at 100 mg/kg turned out to be 100%.

Take `S=C(Nc1ccccc1)Nc1ccccc1SCc1ncon1` [Example 33, N-[2-(1,2,4-oxadiazol-3-yl-methylthio)phenyl]-N^1-phenylthiourea]: 10 mg/kg produced 10% inhibition in vivo.

`O=[N+]([O-])c1ccccc1SNc1ccccc1SCc1ncon1` [Example 44, 3-[2-(2-Nitrophenylsulphenylamino)phenyl]thiomethyl-1,2,4-oxadiazole]: at 100 mg/kg the inhibition in vivo was 27%.

For `Nc1ccccc1SCc1noc(-c2ccccc2)n1` [Example 14, 3-(2-Aminophenylthiomethyl)-5-phenyl-1,2,4-oxadiazole], testing at 10 mg/kg gave an inhibition in vivo of 77% and testing at 100 mg/kg gave an inhibition in vivo of 100%.

In the case of `CCN(CC)c1ccccc1SCc1ncon1` [Example 45, 3-(2-Diethylaminophenylthiomethyl)-1,2,4-oxadiazole], the inhibition in vivo at 10 mg/kg is 84% and at 100 mg/kg the inhibition in vivo was 100%.

For the compound `CCN(C)c1ccccc1SCc1ncon1` [Example 46, 3-[2-(N-ethyl-N-methyl)aminophenylthiomethyl]1,2,4-oxadiazole], the inhibition in vivo at 100 mg/kg amounted to 98%.

As to `Cc1ccc(S(=O)(=O)Nc2ccccc2SCc2ncon2)cc1` [Example 32, 3-[2-(p-toluenesulphonamido)phenylthiomethyl]-1,2,4-oxadiazole], the inhibition in vivo at 100 mg/kg was found to be 43%.

As to `COc1ccc(C(=O)Nc2ccccc2SCc2ncon2)cc1` [Example 27, 3-[2-(4-Methoxybenzamido)phenylthiomethyl]-1,2,4-oxadiazole], at 10 mg/kg the inhibition in vivo was 73% and the inhibition in vivo at 100 mg/kg was found to be 85%.

In turn, `O=C(Nc1ccccc1SCc1ncon1)c1ccco1` [Example 29, 3-(2-Furanoylaminophenylthiomethyl)1,2,4-oxadiazole] displayed an inhibition in vivo at 10 mg/kg of 47% and an inhibition in vivo at 100 mg/kg of 100%.

Compound `COc1cc(C=Nc2ccccc2SCc2ncon2)cc(OC)c1OC` [Example 41, 3-[2-(3,4,5-Trimethoxybenzylideneamino)phenylthiomethyl]-1,2,4-oxadiazole] displayed an inhibition in vivo at 100 mg/kg of 100%.

Compound `Clc1ccc(CNc2ccccc2SCc2ncon2)cc1` [Example 42, 3-[2-(4-Chlorobenzylamino)phenylthiomethyl]1,2,4-oxadiazole] showed an inhibition in vivo at 10 mg/kg of 93% and an inhibition in vivo at 100 mg/kg of 100%.

With `Nc1cc(Cl)ccc1SCC1=NOCN1` [Example 52, 3-(2-Amino-4-chlorophenylthiomethyl)-4,5-dihydro-1,2,4-oxadiazole], testing at 10 mg/kg gave an inhibition in vivo of 95%.

For `Cc1nc(CSc2ccccc2N)no1` [Example 15, 3-(2-Aminophenylthiomethyl)-5-methyl-1,2,4-oxadiazole hydrochloride], the inhibition in vivo at 10 mg/kg was 4% and the inhibition in vivo at 100 mg/kg was determined as 86%.

Take `CN(C)c1cc(Cl)ccc1SCc1ncon1` [Example 18, 3-(4-Chloro-2-dimethylaminophenylthiomethyl)-1,2,4-oxadiazole]: at 100 mg/kg the inhibition in vivo was 95%.

`CNc1ccccc1SCc1ncon1` [Example 4, 3-(2-Methylaminophenylthiomethyl)-1,2,4-oxadiazole]: testing at 10 mg/kg gave an inhibition in vivo of 67% and testing at 100 mg/kg gave an inhibition in vivo of 97%.

`O=C(Nc1ccccc1SCc1ncon1)c1cccs1` [Example 30, 3-(Thiophene-2-carbonylaminophenylthiomethyl)1,2,4-oxadiazole] yielded an inhibition in vivo at 10 mg/kg of 59%.

`O=[N+]([O-])c1ccc(Oc2ccc(NC(=S)Nc3ccccc3SCc3ncon3)cc2)cc1` [Example 36, N-[2-(1,2,4-oxadiazol-3-yl-methylthio)phenyl]-N^1-4-(4-nitrophenyloxy)phenyl thiourea] yielded an inhibition in vivo at 100 mg/kg of 19%.

With `Nc1ccccc1SCC1=NOCN1` [Example 51, 3-(2-Aminophenylthiomethyl)-4,5-dihydro-1,2,4-oxadiazole], the inhibition in vivo at 10 mg/kg came out at 63%.

Take `Cc1ccc(SCc2ncon2)c(N)c1` [Example 6, 3-(2-Amino-4-methylphenylthiomethyl)-1,2,4-oxadiazole]: the inhibition in vivo at 10 mg/kg is 55% and 100 mg/kg produced 99% inhibition in vivo.

Take `CN(C)c1ccccc1SCc1noc(CSc2ccc(Cl)cc2)n1` [Example 48, 5-(4-chlorophenylthiomethyl)-3-(2-dimethylaminophenylthiomethyl)-1,2,4-oxadiazole]: at 10 mg/kg the inhibition in vivo was 22% and the inhibition in vivo at 100 mg/kg is 88%.

Turning to `CC(C)(C)C(=O)Nc1ccccc1SCc1ncon1` [Example 28, 3-(2-Trimethylacetamidophenylthiomethyl)1,2,4-oxadiazole], the inhibition in vivo at 100 mg/kg came to 53%.

Regarding `CS(=O)(=O)Nc1ccccc1SCc1ncon1` [Example 31, 3-(2-Methylsulphonamidophenylthiomethyl)-1,2,4-oxadiazole], the inhibition in vivo at 10 mg/kg worked out at 33%.

The compound `CN(C)c1ccccc1SCC1=NOCN1` [Example 53, 3-(2-Dimethylaminophenylthiomethyl)-4,5-dihydro-1,2,4-oxadiazole] gave an inhibition in vivo at 10 mg/kg of 43%.

`O=C(Nc1ccccc1SCc1ncon1)c1ccccc1` [Example 26, 3-(2-Benzamidophenythiomethyl)-1,2,4-oxadiazole] showed an inhibition in vivo at 10 mg/kg of 52%.

`CN(C)c1ccccc1SCc1ncon1` [Example 1, 3-(2-Dimethylaminophenylthiomethyl)-1,2,4-oxadiazole]: at 10 mg/kg the inhibition in vivo was 65% and the inhibition in vivo at 100 mg/kg worked out at 100%.

As for `Nc1cccc(Cl)c1SCc1ncon1` [Example 9, 3-(2-Amino-6-chlorophenylthiomethyl)-1,2,4-oxadiazole], the inhibition in vivo at 10 mg/kg amounted to 32% and testing at 100 mg/kg gave an inhibition in vivo of 89.6%.

For `CC(=O)Nc1ccccc1SCc1ncon1` [Example 23, 3-(2-Acetylaminophenylthiomethyl)-1,2,4-oxadiazole], the inhibition in vivo at 10 mg/kg is 38% and at 100 mg/kg the inhibition in vivo was 100%.

The compound `Nc1cc(Cl)ccc1SCc1ncon1` [Example 8, 3-(2-Amino-4-chlorophenylthiomethyl)-1,2,4-oxadiazole] registered an inhibition in vivo at 10 mg/kg of 89% and an inhibition in vivo at 100 mg/kg of 100%.

Compound `Nc1ccccc1SCc1noc(-c2ccc(Cl)cc2)n1` [Example 11, 3-(2-Aminophenylthiomethyl)-5-(4-chlorophenyl)-1,2,4-oxadiazole] had an inhibition in vivo at 10 mg/kg of 54% and an inhibition in vivo at 100 mg/kg of 99%.

Consider `CN(C)c1ccccc1SCc1noc(-c2ccccc2)n1` [Example 2, 3-(2-Dimethylaminophenylthiomethyl)-5-phenyl-1,2,4-oxadiazole], for which testing at 100 mg/kg gave an inhibition in vivo of 83%.

`CCOC(=O)Nc1ccccc1SCc1ncon1` [Example 19, 3-(2-Ethoxycarbonylaminophenylthiomethyl)-1,2,4-oxadiazole] came in with an inhibition in vivo at 10 mg/kg of 52% and an inhibition in vivo at 100 mg/kg of 99.9%.
